Source: ChEMBL document CHEMBL2216755, “Ranking high affinity ligands of low solubility by NMR spectroscopy” (ACS Med Chem Lett, 2011)

What was measured:
[1] = target: T1, Peptidyl-prolyl cis-trans isomerase A (Homo sapiens, UniProt P62937); test: Binding affinity to human cyclophilin A by intrinsic tryptophan fluorescence
Target sequence in this assay (P62937 whole entry): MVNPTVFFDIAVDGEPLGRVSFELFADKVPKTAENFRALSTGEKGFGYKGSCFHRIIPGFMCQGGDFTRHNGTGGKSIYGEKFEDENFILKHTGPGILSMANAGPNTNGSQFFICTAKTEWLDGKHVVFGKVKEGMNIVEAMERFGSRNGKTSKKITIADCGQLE

[2] = target: T1, Peptidyl-prolyl cis-trans isomerase A; test: Binding affinity to human cyclophilin A assessed as compound-enzyme complex formation at 1:1 protein to compound ratio by NMR analysis
Target sequence in this assay (P62937 whole entry, looked up): as the sequence (P62937 whole entry) above

| SMILES | Kd [1] | Activity [2] |
| --- | --- | --- |
| C/C=C/C[C@@H](C)[C@@H](O)[C@H]1C(=O)N[C@@H](CC)C(=O)N(C)CC(=O)N(C)[C@@H](C(C)C)C(=O)N[C@@H](C(C)C)C(=O)N(C)[C@@H](CC(C)C)C(=O)N[C@@H](C)C(=O)N[C@H](C)C(=O)N(C)[C@@H](CC(C)C)C(=O)N(C)[C@@H](CC(C)C)C(=O)N(C)[C@@H](C(C)C)C(=O)N1C | 11 nM |  |
| C/C=C/C[C@@H](C)[C@@H](O)[C@H]1C(=O)N[C@@H](CC)C(=O)N(C)CC(=O)N(C)[C@@H](CC(C)C)C(=O)N[C@@H](C(C)C)C(=O)N(C)[C@@H](CC(C)C)C(=O)N[C@@H](C)C(=O)N[C@H](C)C(=O)N(C)[C@@H](CC(C)C)C(=O)N(C)[C@@H](C(C)C)C(=O)N(C)[C@@H](C(C)C)C(=O)N1C |  | 53% |
| C/C=C/C[C@@H](C)[C@@H](O)[C@H]1C(=O)N[C@@H](CC)C(=O)N(C)[C@H](C)C(=O)N(CC)[C@@H](C(C)C)C(=O)N[C@@H](C(C)C)C(=O)N(C)[C@@H](CC(C)C)C(=O)N[C@@H](C)C(=O)N[C@H](C)C(=O)N(C)[C@@H](CC(C)C)C(=O)N(C)[C@@H](CC(C)C)C(=O)N(C)[C@@H](C(C)C)C(=O)N1C [ALISPORIVIR] | 11 nM | 59% |
